Test results as given in ChEMBL document CHEMBL2034904, “A new series of N5 derivatives of the 1,1,5-trimethyl furo[3,4-c]pyridine-3,4-dione (cerpegin) selectively inhibits the post-acid activity of mammalian 20S proteasomes” (Bioorg Med Chem Lett, 2012).
Calls of active or inactive are those of the source. No cut-off for these calls is given here.

What was measured:
Oryctolagus cuniculus [1] = species on record: Oryctolagus cuniculus; assay: Inhibition of trypsin-like activity of 20S proteasome catalytic core from rabbit erythrocytes using Boc-LRR-AMC as substrate at 100 uM preincubated for 15 mins prior to substrate addition measured after 45 mins
[2] = molecular target: Cathepsin B (Homo sapiens) (UniProt P07858); assay: Inhibition of cathepsin B from human hepatocytes using […] as substrate; settings: Hepatocyte
Homo sapiens [3] = species on record: Homo sapiens; assay: Inhibition of calpain-1 from human erythrocytes using […] as substrate
Oryctolagus cuniculus [4] = species on record: Oryctolagus cuniculus; assay: Inhibition of chymotrypsin-like activity of 20S proteasome catalytic core from rabbit erythrocytes using Suc-LLVY-AMC as substrate at 100 uM preincubated for 15 mins prior to substrate addition measured after 45 mins
[5] = Inhibition of caspase-like activity of 20S proteasome catalytic core from rabbit erythrocytes using Z-LLE-NA as substrate preincubated for 15 mins prior to substrate addition measured after 45 mins; parameters: species or system Oryctolagus cuniculus
Oryctolagus cuniculus [6] = species on record: Oryctolagus cuniculus; assay: Inhibition of caspase-like activity of 20S proteasome catalytic core from rabbit erythrocytes using Z-LLE-NA as substrate at 100 uM preincubated for 15 mins prior to substrate addition measured after 45 mins
Homo sapiens [7] = species on record: Homo sapiens; assay: (§1) Inhibition of chymotrypsin-like activity of 20S proteasome catalytic core from human erythrocytes using Suc-LLVY-AMC as substrate preincubated for 15 mins prior to substrate addition measured after 45 mins
Homo sapiens [8] = species on record: Homo sapiens; assay: (§2) Inhibition of trypsin-like activity of 20S proteasome catalytic core from human erythrocytes using Boc-LRR-AMC as substrate preincubated for 15 mins prior to substrate addition measured after 45 mins
[9] = Inhibition of caspase-like activity of 20S proteasome catalytic core from human erythrocytes using Z-LLE-NA as substrate preincubated for 15 mins prior to substrate addition measured after 45 mins
[10] = Inhibition of trypsin-like activity of 20S proteasome catalytic core from rabbit erythrocytes using Boc-LRR-AMC as substrate preincubated for 15 mins prior to substrate addition measured after 45 mins; parameters: species or system Oryctolagus cuniculus
Homo sapiens [11] = species on record: Homo sapiens; assay: Inhibition of trypsin-like activity of 20S proteasome catalytic core from human erythrocytes using Boc-LRR-AMC as substrate at 100 uM preincubated for 15 mins prior to substrate addition measured after 45 mins
[12] = as §1
Oryctolagus cuniculus [13] = species on record: Oryctolagus cuniculus; assay: Irreversible inhibition of rabbit 20S proteasome chymotrypsin-like activity using […] as substrate at 10 to 50 uM from 5 to 60 mins
Oryctolagus cuniculus [14] = species on record: Oryctolagus cuniculus; assay: Inhibition of rabbit 20S proteasome chymotrypsin-like activity using […] as substrate at 10 to 50 uM; settings: TDE = time-dependent effect
[15] = as §2
[16] = Inhibition of chymotrypsin-like activity of 20S proteasome catalytic core from rabbit erythrocytes using Suc-LLVY-AMC as substrate preincubated for 15 mins prior to substrate addition measured after 45 mins; parameters: species or system Oryctolagus cuniculus

SMILES | inhibition (Oryctolagus cuniculus [1]) | inhibition [2] | inhibition (Homo sapiens [3]) | inhibition (Oryctolagus cuniculus [4]) | IC50 [5] [µM] | other results
CC1(C)OC(=O)c2c1ccn(Cc1ccc(Cl)cc1)c2=O | 20% | inactive | inactive | 21% | 7.1 | 
CN(C)CCn1ccc2c(c1=O)C(=O)OC2(C)C | inactive | inactive | inactive | inactive |  | inhibition (Oryctolagus cuniculus [6]): 50%
CC1(C)OC(=O)c2c1ccn(Cc1ccc(Cl)cc1Cl)c2=O | inactive | inactive | inactive | inactive | 29.3 | 
CC1(C)OC(=O)c2c1ccn(CC(O)c1ccccc1)c2=O (stereo unspecified) | 51.5% | inactive | inactive | inactive | 5.2 | 
CC1(C)OC(=O)c2c1ccn(CCNc1ccc([N+](=O)[O-])cn1)c2=O | inactive | inactive | inactive | inactive |  | inhibition (Oryctolagus cuniculus [6]): 23.4%
CC1(C)OC(=O)c2c1ccn(CC(O)CN1CCCCC1)c2=O (stereo unspecified) | inactive | inactive | inactive | inactive | 6.1 | 
CC1(C)OC(=O)c2c1ccn(CC(O)CO)c2=O (stereo unspecified) | inactive | inactive | inactive | inactive | 4.9 | 
CC1(C)OC(=O)c2c1ccn(CCCn1ccnc1)c2=O | inactive | inactive | inactive | inactive | 76.8 | 
CC1(C)OC(=O)c2c1ccn(CCc1ccc(S(N)(=O)=O)cc1)c2=O | inactive | inactive | inactive | inactive | 5.5 | 
CC1(C)OC(=O)c2c1ccn(CCCN1CCOCC1)c2=O | inactive | inactive | inactive | inactive | 71.9 | 
CC1(C)OC(=O)c2c1ccn(CCc1ccc(O)cc1)c2=O | inactive | inactive | inactive | 38.2% |  | inhibition (Oryctolagus cuniculus [6]): 21.7%
CC1(C)OC(=O)c2c1ccn(Cc1cccc(C(F)(F)F)c1)c2=O | inactive | inactive | inactive | inactive | 8.4 | 
CC1(C)OC(=O)c2c1ccn(Cc1ccncc1)c2=O | inactive | inactive | inactive | inactive | 7 | inhibition (Homo sapiens [7]): inactive; inhibition (Homo sapiens [8]): inactive; IC50 [9]: 7.9 µM
CC1(C)OC(=O)c2c1ccn(CCc1ccc(Cl)cc1)c2=O | 50% | inactive | inactive | inactive | 20.1 | 
CC1(C)OC(=O)c2c1ccn(CCO)c2=O | inactive | inactive | inactive | inactive | 12.1 | 
CC1(C)OC(=O)c2c1ccn(CCCN1CCCC1)c2=O | inactive | inactive | inactive | inactive | 11.4 | 
CC1(C)OC(=O)c2c1ccn(CCc1c[nH]c3ccccc13)c2=O | inactive | inactive | inactive | inactive |  | inhibition (Oryctolagus cuniculus [6]): 23.7%
C=CCOCC(O)Cn1ccc2c(c1=O)C(=O)OC2(C)C (stereo unspecified) | inactive | inactive | inactive | inactive | 5.9 | 
CC1(C)OC(=O)c2c1ccn(CC(O)CN1CCOCC1)c2=O (stereo unspecified) | 42.5% | inactive | inactive | inactive |  | inhibition (Oryctolagus cuniculus [6]): inactive
CC1(C)OC(=O)c2c1ccn(CCc1ccccc1Cl)c2=O | 40% | inactive | inactive | inactive | 4.9 | 
CCOC(=O)Cn1ccc2c(c1=O)C(=O)OC2(C)C | inactive | inactive | inactive | inactive | 13.3 | 
CCN(CC)CC(O)Cn1ccc2c(c1=O)C(=O)OC2(C)C (stereo unspecified) |  | inactive | inactive | inactive | 6.1 | IC50 [10]: 90 µM
CC1(C)OC(=O)c2c1ccn(CCc1ccc(F)cc1)c2=O | inactive | inactive | inactive | inactive | 39.8 | 
COc1ccc(CCn2ccc3c(c2=O)C(=O)OC3(C)C)cc1 | inactive | inactive | inactive | inactive |  | inhibition (Oryctolagus cuniculus [6]): inactive
CC1(C)OC(=O)c2c1ccn(CCc1ccccc1)c2=O | 22.6% | inactive | inactive | inactive | 48.7 | inhibition (Homo sapiens [11]): 25.3%; inhibition (Homo sapiens [7]): inactive; IC50 [9]: 45.7 µM
Cn1ccc2c(c1=O)C(=O)OC2(C)C [CERPEGIN] | inactive | inactive | inactive | inactive | 10.4 | 
CC1(C)OC(=O)c2c1ccn(CC(O)CN1CCN(Cc3ccccc3)CC1)c2=O (stereo unspecified) | inactive | inactive | inactive | inactive | 69.8 | 
CC1(C)OC(=O)c2c1ccn(CC(O)COc1ccccc1)c2=O (stereo unspecified) | 33.3% | inactive | inactive | inactive | 39.7 | 
CC1(C)OC(=O)c2c1ccn(NC(N)=S)c2=O |  | inactive | inactive |  | 10.7 | IC50 [12]: 8.4 µM; inhibition (Oryctolagus cuniculus [13]): Active; inhibition (Oryctolagus cuniculus [14]): tde; IC50 [15]: 10.2 µM; IC50 [10]: 10.1 µM; IC50 [16]: 8 µM; IC50 [9]: 9.7 µM
